The source made the active and inactive calls. The rule behind the calls is not given here.
Columns and labels:
MCF-10A = experiment: Cytotoxicity against human MCF-10 A cells assessed as reduction in cell viability at 32 uM incubated for 48 hrs by MTT assay relative to control; assay type: toxicity, cell-based
4T1 [1] = experiment: Antitumor activity against mouse 4T1 cells allografted in BALB/c mouse assessed as reduction in tumor weight at 15 mg/kg, ip qd for 21 days by vernier caliper method relative to control; assay type: functional; parameters: scale not given: the % may be the effect or the level left; conditions: time 21 day
MDA-MB-231 [2] = experiment: Induction of apoptosis in human MDA-MB-231 cells assessed as early apoptotic cells at 5 uM incubated for 24 hrs by Annexin-V/FITC and PI staining based flow cytometry analysis (reference value: 1.4%); assay type: functional
MDA-MB-231 [3] = experiment: Induction of apoptosis in human MDA-MB-231 cells assessed as chromatinorrhexis at 0.5 to 5 uM incubated for 24 hrs by Hoechst 33258 staining based fluorescence microscopy analysis; assay type: functional, cell-based; conditions: dose 0.5-5 µM
MDA-MB-231 [4] = experiment: Induction of apoptosis in human MDA-MB-231 cells assessed as necrotic cells at 5 uM incubated for 24 hrs by Annexin-V/FITC and PI staining based flow cytometry analysis (reference value: 0.0%); assay type: functional
MDA-MB-231 [5] = experiment: Induction of apoptosis in human MDA-MB-231 cells assessed as late apoptotic cells at 5 uM incubated for 24 hrs by Annexin-V/FITC and PI staining based flow cytometry analysis (reference value: 0.7%); assay type: functional
MDA-MB-231 [6] = experiment: Induction of apoptosis in human MDA-MB-231 cells assessed as necrotic cells at 2 uM incubated for 24 hrs by Annexin-V/FITC and PI staining based flow cytometry analysis (reference value: 0.0%); assay type: functional
[7] = Toxicity in BALB/c mousee assessed as change in body weight at 15 to 30 mg/kg, ip qd for 21 days; assay type: organism-based; conditions: mouse, in vivo, 504 h, dose 15-30 mg/kg, time 21 day
MDA-MB-231 [8] = experiment: Induction of apoptosis in human MDA-MB-231 cells assessed as increase in cleaved capase-7 level at 0.5 to 5 uM incubated for 24 hrs by Western blot analysis; assay type: functional, cell-based; conditions: dose 0.5-5 µM
[9] = molecular target: Histone deacetylase (Homo sapiens) (UniProt Q13547+O15379+Q9UBN7+Q92769+Q9UQL6+Q8WUI4+Q9BY41+Q96DB2+P56524+Q9UKV0+Q969S8); experiment: Inhibition of HDAC in human MDA-MB-231 cells assessed as increase in alpha tubulin acetylation incubated for 24 hrs by Western blot analysis; assay type: cell-based; conditions: dose 0.5-5 µM, DDE = dose-dependent effect
[10] = Half life in Sprague-Dawley rat at 20 mg/kg, po measured upto 24 hrs by LC-MS/MS analysis; assay type: ADME, organism-based; conditions: in vivo
MDA-MB-231 [11] = experiment: Induction of apoptosis in human MDA-MB-231 cells assessed as early apoptotic cells at 2 uM incubated for 24 hrs by Annexin-V/FITC and PI staining based flow cytometry analysis (reference value: 1.4%); assay type: functional
[12] = molecular target: T1, Signal transducer and activator of transcription 3 (Homo sapiens, UniProt P40763); experiment: Inhibition of STAT3 in human MDA-MB-231 cells assessed as decrease in cyclin-D1 protein expression at 0.5 to 5 uM after 24 hrs by Western blot analysis; assay type: cell-based; conditions: dose 0.5-5 µM
[13] = molecular target: T1, Signal transducer and activator of transcription 3; experiment: Inhibition of STAT3 in human MDA-MB-231 cells assessed as decrease in cyclin D1 mRNA expression at 0.5 to 5 uM by qRT-PCR analysis; assay type: cell-based; conditions: dose 0.5-5 µM
[14] = molecular target: T1, Signal transducer and activator of transcription 3; experiment: Inhibition of STAT3 in human MDA-MB-231 cells assessed as decrease in Bcl-2 mRNA expression at 0.5 to 5 uM by qRT-PCR analysis; assay type: cell-based; conditions: dose 0.5-5 µM
HCT-116 = experiment: Cytotoxicity against human HCT-116 cells assessed as reduction in cell viability incubated for 48 hrs by MTT assay; assay type: functional, cell-based; conditions: HCT-116, 48 h
L02 = experiment: Cytotoxicity against human L02 cells assessed as reduction in cell viability at 32 uM incubated for 48 hrs by MTT assay relative to control; assay type: toxicity, cell-based; conditions: l02, 48 h
Histone deacetylase = experiment: Inhibition of HDAC in human MDA-MB-231 cells incubated for 24 hrs by fluorometric assay; assay type: cell-based
MDA-MB-231 [15] = experiment: Induction of apoptosis in human MDA-MB-231 cells assessed as chromatin condensation at 0.5 to 5 uM incubated for 24 hrs by Hoechst 33258 staining based fluorescence microscopy analysis; assay type: functional, cell-based; conditions: dose 0.5-5 µM
MDA-MB-231 [16] = experiment: Induction of apoptosis in human MDA-MB-231 cells assessed as increase in cleaved PARP level at 0.5 to 5 uM incubated for 24 hrs by Western blot analysis; assay type: functional, cell-based; conditions: dose 0.5-5 µM
[17] = Volume of distribution at steady state in Sprague-Dawley rat at 2 mg/kg, iv measured upto 24 hrs by LC-MS/MS analysis; assay type: ADME, organism-based; conditions: in vivo, read-out: Vdss
MDA-MB-231 [18] = experiment: Inhibition of colony formation in human MDA-MB-231 cells at 0.5 to 0.5 uM incubated for 24 hrs followed by culturing in fresh compound-free medium for 15 days by crystal violet dye based assay; assay type: functional, cell-based; conditions: dose 0.5-0.5 µM
[19] = Half life in Sprague-Dawley rat at 2 mg/kg, iv measured upto 24 hrs by LC-MS/MS analysis; assay type: ADME, organism-based; conditions: in vivo
[20] = molecular target: T1, Signal transducer and activator of transcription 3; experiment: Binding affinity to recombinant GST tagged STAT3 (unknown origin) assessed as association constant at equilibrium
[21] = Oral bioavailability in Sprague-Dawley rat at 20 mg/kg measured upto 24 hrs by LC-MS/MS analysis; assay type: ADME, organism-based; conditions: in vivo
MDA-MB-231 [22] = experiment: Effect on STAT3 in human MDA-MB-231 cells assessed as […] phosphorylation at 10 uM incubated for 24 hrs by Western blot analysis; assay type: functional, cell-based
MDA-MB-231 [23] = experiment: Induction of apoptosis in human MDA-MB-231 cells assessed as viable cells at 5 uM incubated for 24 hrs by Annexin-V/FITC and PI staining based flow cytometry analysis (reference value: 97.8%); assay type: functional; conditions: read-out: Activity
Histone deacetylase 1 = Histone deacetylase 1 (Homo sapiens, UniProt Q13547); experiment: Inhibition of recombinant human HDAC1 using RHKK(Ac)AMC fluorogenic peptide as substrate by fluorescence assay
4T1 [24] = experiment: Antitumor activity against mouse 4T1 cells allografted in BALB/c mouse assessed as reduction in tumor weight at 30 mg/kg, ip qd for 21 days by vernier caliper method relative to control; assay type: functional; parameters: scale not given: the % may be the effect or the level left; conditions: time 21 day
[25] = Clearance in Sprague-Dawley rat at 2 mg/kg, iv measured upto 24 hrs by LC-MS/MS analysis; assay type: ADME, organism-based; conditions: in vivo

T1 sequence (P40763 whole entry): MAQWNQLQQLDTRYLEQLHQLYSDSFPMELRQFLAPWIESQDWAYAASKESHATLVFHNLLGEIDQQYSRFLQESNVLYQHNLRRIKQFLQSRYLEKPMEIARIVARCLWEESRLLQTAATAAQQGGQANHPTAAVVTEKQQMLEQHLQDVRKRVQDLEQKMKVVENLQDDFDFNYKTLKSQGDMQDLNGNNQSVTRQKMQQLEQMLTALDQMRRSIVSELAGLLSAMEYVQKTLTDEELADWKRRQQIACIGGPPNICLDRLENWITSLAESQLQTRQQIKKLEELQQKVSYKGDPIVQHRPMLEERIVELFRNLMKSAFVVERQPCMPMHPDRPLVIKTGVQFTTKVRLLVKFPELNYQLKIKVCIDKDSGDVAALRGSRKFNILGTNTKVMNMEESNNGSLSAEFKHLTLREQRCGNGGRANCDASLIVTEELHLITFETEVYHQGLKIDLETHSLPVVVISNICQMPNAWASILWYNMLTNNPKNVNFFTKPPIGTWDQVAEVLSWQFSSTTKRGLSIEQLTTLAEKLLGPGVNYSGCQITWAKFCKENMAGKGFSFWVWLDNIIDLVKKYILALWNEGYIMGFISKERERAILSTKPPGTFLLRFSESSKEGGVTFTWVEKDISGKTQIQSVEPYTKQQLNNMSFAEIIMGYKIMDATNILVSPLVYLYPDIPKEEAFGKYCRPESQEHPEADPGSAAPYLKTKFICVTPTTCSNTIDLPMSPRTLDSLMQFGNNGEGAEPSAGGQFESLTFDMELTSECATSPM
Chain of Histone deacetylase 1 (Q13547 whole entry): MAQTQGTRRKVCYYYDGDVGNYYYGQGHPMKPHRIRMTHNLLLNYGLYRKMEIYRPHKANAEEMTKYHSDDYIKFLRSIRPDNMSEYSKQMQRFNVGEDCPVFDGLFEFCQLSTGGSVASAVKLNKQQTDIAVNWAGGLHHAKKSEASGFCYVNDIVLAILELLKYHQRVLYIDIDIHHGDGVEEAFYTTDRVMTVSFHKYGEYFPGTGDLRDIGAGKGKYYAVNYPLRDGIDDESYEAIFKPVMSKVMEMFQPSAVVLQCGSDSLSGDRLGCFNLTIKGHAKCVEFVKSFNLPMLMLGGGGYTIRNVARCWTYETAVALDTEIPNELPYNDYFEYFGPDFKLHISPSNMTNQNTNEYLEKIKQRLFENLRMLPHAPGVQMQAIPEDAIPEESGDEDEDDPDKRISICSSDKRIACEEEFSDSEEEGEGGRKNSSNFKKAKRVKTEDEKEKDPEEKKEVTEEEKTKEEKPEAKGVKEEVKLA

Compound `COc1cc(/C=C/c2ccc(OCCCCCCC(=O)NO)cc2)cc(OC)c1` has an Activity (MCF-10A) of 38%, an Activity (4T1 [1]) of 53% and an Activity (MDA-MB-231 [2]) of 15.2%. For the same compound, the Activity (MDA-MB-231 [3]) was “Active”, the Activity (MDA-MB-231 [4]) was 0.2% and the Activity (MDA-MB-231 [5]) was 3.9%. For the same compound, the Activity (MDA-MB-231 [6]) was 0.1%, the Activity [7] was “Non-Toxic” and the Activity (MDA-MB-231 [8]) was “Active”. The Activity [9] was “Dde”, the half-life [10] was 52.8 min and the Activity (MDA-MB-231 [11]) was 4.9%. For the same compound, the inhibition [12] was “Active”, the inhibition [13] was “Active” and the inhibition [14] was “Active”. For the same compound, the IC50 (HCT-116) was 1070 nM, the Activity (L02) was 32% and the IC50 (Histone deacetylase) was 23.15 nM. The Activity (MDA-MB-231 [15]) was “Active”, the Activity (MDA-MB-231 [16]) was “Active” and the Vd [17] was 1.65 L/kg. For the same compound, the inhibition (MDA-MB-231 [18]) was “Active”, the half-life [19] was 28.2 min and the Ka [20] was 451000 M⁻¹ s⁻¹. For the same compound, the bioavailability [21] was 5.81%, the Activity (MDA-MB-231 [22]) was “Active” and the viability at 5 µM (MDA-MB-231 [23]) was 80.8%. For the same compound, the IC50 (Histone deacetylase 1) was 683 nM, the Activity (4T1 [24]) was 62% and the clearance [25] was 63.9 mL/min/kg.

Reference: ChEMBL document CHEMBL5154636, “Discovery of STAT3 and Histone Deacetylase (HDAC) Dual-Pathway Inhibitors for the Treatment of Solid Cancer” (J Med Chem, 2021)
